Experimental data taken from patent US9512106B2, “Smoothened modulators and methods of use thereof” (Duke University, priority 2012, dated 2016).
Where two headings read alike, the source gives them in different places.

Tests used:
[1] = target: T1, Smo-633 (Homo sapiens, UniProt Q99835); assay: Smo/βarr2-GFP translocation high-throughput imaging assay (antagonist mode); type: cell-based; conditions: for inhibition of intracellular βarr2-GFP aggregation: U2OS cells with Smo-633 and βarr2-GFP, 5 μM
T1 construct: expressed in transfected cells
T1 sequence (Q99835 with tags, fused parts or gaps limits assumed): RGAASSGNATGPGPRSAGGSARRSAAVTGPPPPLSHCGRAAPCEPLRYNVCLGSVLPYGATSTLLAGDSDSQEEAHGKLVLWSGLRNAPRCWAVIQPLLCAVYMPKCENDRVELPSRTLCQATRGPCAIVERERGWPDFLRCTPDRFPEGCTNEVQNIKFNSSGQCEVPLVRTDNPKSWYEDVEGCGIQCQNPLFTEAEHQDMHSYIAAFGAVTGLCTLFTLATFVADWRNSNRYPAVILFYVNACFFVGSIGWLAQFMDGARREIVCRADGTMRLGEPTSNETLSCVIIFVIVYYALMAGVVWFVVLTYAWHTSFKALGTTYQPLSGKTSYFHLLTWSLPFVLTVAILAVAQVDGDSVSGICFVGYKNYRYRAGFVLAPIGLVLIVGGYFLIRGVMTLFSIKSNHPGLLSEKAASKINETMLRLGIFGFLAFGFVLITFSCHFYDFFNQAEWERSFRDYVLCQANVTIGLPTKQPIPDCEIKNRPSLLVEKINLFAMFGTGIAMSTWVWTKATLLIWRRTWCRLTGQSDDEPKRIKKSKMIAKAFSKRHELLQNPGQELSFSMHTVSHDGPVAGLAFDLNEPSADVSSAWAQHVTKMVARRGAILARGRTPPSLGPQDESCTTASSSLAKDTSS
From the text: U2OS cells stably expressing a chimera Smo-633 receptor and βarr2-GFP were used in HTS screening.
To identify novel Smo inhibitors, we screened chemical libraries using our confocal imaging, cell-based platform assay as the primary high-throughput screening assay. […] Thus, small molecule inhibitors of Smo are identified by the loss of the punctate pattern.
To control for receptor specificity and to rule-out non-specific mechanisms, hits were cross-screened in the same assay format using the vasopressin2 receptor (V2R), a different seven-transmembrane receptor. In this control assay, cells transfected with V2R and βarr2-GFP are stimulated with the agonist arginine vasopressin. […] This control assay helps ensure the mechanism of inhibition is Smo receptor specific and allows molecules with non-specific mechanisms of inhibition to be ruled-out.

[2] = target: T2, wild-type Smo (Homo sapiens, UniProt Q99835); assay: [3H]-cyclopamine competitive binding, wild-type Smo; conditions: 25 nM [3H]-cyclopamine; for displacement of [3H]-cyclopamine from wild-type Smo: U2OS cells overexpressing wild-type Smo; for Ki: fixed U2OS cells overexpressing wild-type Smo, mean±SEM, read-out: Ki, displacement of [3H]-cyclopamine from Smo
T2 construct: expressed in transfected cells; host or cells: U2OS
T2 sequence (Q99835 28-787): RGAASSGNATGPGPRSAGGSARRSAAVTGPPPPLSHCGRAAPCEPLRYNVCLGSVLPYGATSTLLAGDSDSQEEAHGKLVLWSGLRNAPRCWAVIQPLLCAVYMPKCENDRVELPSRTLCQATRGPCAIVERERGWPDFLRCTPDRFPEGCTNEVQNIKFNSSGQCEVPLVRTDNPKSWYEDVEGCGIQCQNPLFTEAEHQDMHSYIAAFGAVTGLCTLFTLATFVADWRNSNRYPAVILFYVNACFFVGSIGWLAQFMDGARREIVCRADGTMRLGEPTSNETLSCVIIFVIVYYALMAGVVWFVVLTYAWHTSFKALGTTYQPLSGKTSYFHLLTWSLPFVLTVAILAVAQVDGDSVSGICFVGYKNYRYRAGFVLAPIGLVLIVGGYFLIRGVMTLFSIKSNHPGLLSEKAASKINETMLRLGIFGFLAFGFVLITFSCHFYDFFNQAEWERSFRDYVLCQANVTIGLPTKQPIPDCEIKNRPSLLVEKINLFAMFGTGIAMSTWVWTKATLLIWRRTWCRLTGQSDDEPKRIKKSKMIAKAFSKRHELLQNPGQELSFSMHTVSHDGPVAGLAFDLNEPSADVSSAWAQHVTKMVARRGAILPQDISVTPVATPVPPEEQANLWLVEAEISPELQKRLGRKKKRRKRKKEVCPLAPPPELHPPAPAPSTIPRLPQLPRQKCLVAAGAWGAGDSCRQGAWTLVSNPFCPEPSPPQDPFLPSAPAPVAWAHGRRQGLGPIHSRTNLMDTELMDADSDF
Method: (§1) FIG. 3. […] The displacement data were analyzed by fitting to a one-site competition curve using Graphpad Prism. Data were acquired in triplicates from three independent experiments and are presented as the mean±SEM.
(§2) For competitive binding assays, U2OS cells overexpressing wild-type Smo or Smo-D473H mutant receptors were grown in 24-well plates and fixed with 4% (v/v) formaldehyde/PBS for 20 min at room temperature (RT).

[3] = target: T3, Smo-D473H (Homo sapiens, UniProt Q99835, D473H); assay: [3H]-cyclopamine competitive binding, Smo-D473H mutant; conditions: for competition for binding / displacement of [3H]-cyclopamine from Smo-D473H: U2OS cells overexpressing Smo-D473H
T3 construct: expressed in transfected cells; host or cells: U2OS
T3 sequence (Q99835 28-787 D473H): as the sequence (Q99835 28-787) above, with D446H counted along it
Method: as §1, §2

[4] = system: Shh-induced Gli reporter activity; assay: Gli-luciferase reporter assay in Shh-LIGHT2 cells; type: cell-based
Method: FIG. 4. […] Cells were then exposed to [3H]-thymidine for 16 h and [3H]-thymidine incorporation was measured. Data were fit using Graphpad Prism (mean±SEM, n=3).
The Gli-luciferase assay was conducted in Shh-LIGHT2 cells, a clonal NIH3T3 cell line stably incorporating Gli-dependent firefly luciferase and constitutive Renilla luciferase reporters35. Cells were treated with purified Sonic Hedgehog protein (50 ng/mL) together with the corresponding compounds for 2 days. The reporter activity was determined by using the Dual-Luciferase Reporter Assay System (Promega).

[5] = system: cerebellar granular cell precursor (GCP) cells; assay: GCP cell proliferation ([3H]-thymidine incorporation); type: cell-based, mouse; conditions: read-out: IC50, inhibition of GCP proliferation
Method: FIG. 4. Compound A8 inhibits Gli-reporter activity and GCP proliferation. […] Cells were then exposed to [3H]-thymidine for 16 h and [3H]-thymidine incorporation was measured. Data were fit using Graphpad Prism (mean±SEM, n=3).
Primary neuronal granular cell precursor (GCP) cells were obtained from the cerebellum of 7-day postnatal C57BL/6 mice and labeled with [3H]-thymidine. Proliferation assays were performed as previously described28.

[6] = system: Hh-induced hair growth; assay: Hair regrowth after depilation, topical treatment; type: in vivo, mouse; conditions: C57BL/6 female mice, 0.5 mM, 30 μl topically daily for two weeks
Method: Eight-week-old C57BL/6 female mice were shaved on the dorsal surface and depilated with Nair® (Carter-Wallace, New York, N.Y.). Briefly, the bottom half of the shaved area was treated with Nair for 2 min, and the depilated area rinsed with water to remove residual Nair. Compound A8 was dissolved in a vehicle of 95% acetone/5% DMSO at a concentration of 0.5 mM, and 30 μl of A8 solution or the vehicle were applied topically to the depilated area of mice daily for two weeks. Mice were anesthetized briefly using 3% isoflurane anesthetic inhalant during all procedures. Five mice were included in each treatment group. All animals were treated in accordance with protocols approved by Institutional Animal Care and Use Committee at Duke University.
Hedgehog signaling plays a key role in regulating hair follicle growth40. To determine the efficacy of the novel Smo inhibitor A8 in suppressing Hh signaling in vivo, we used a model of hedgehog inhibition that examines inhibition of hair-growth41-43. Eight-week old Female C57BL mice in telogen phase of the hair cycle were used in these experiments44. Chemical depilation with Nair® induces anagen phase and regrowth of hair by activating the Hh signaling pathway. In our experiments, most of the hair on the back of vehicle treated mice grew back 2 weeks after removal with Nair (data not shown).

[7] = Storage of the active impurity in solution, activity retained; type: physicochemical; conditions: room temperature, DMSO or methanolic solution, 1 week
From the text: Subsequent characterization of this impurity by high-resolution mass spectrometry (HRMS) and by extensive NMR analysis allowed assignment of structure to the impurity as shown for Compound A8 (FIG. 2A). Confirmation of the structural assignment was achieved by synthesis of authentic material using the route described in FIG. 2B. Synthesized material matched the isolated material from the library sample by extensive NMR analysis, HRMS, TLC and HPLC.

[8] = target: T4, vasopressin2 receptor (V2R) (Homo sapiens, UniProt P30518); conditions: cells transfected with V2R and βarr2-GFP, arginine vasopressin stimulated; cited from earlier work
T4 construct: expressed in transfected cells
T4 sequence (P30518 whole entry, species assumed): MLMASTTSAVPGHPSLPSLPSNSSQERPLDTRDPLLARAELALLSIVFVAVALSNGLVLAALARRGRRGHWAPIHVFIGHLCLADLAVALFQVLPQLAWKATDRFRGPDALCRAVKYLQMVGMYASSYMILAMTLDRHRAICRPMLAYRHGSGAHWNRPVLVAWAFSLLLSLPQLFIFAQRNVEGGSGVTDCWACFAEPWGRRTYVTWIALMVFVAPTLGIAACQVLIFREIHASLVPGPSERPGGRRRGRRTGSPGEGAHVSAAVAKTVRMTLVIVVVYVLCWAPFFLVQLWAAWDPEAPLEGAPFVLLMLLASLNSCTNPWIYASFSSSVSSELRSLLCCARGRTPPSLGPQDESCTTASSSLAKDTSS

[9] = mouse GCP cells, 48 hours with Shh, then [3H]-thymidine 16 h, mean±SEM, n=3

Row | SMILES | inhibition of intracellular βarr2-GFP aggregation [1] | displacement of [3H]-cyclopamine from wild-type Smo [2] | Ki [2] [nM] | competition for binding / displacement of [3H]-cyclopamine from Smo-D473H [3] | IC50 [5, 9] [nM] | also measured
1 | O=C(NC1CCN(Cc2ccc(N3CCC(NC(=O)c4cccc(-c5cccnc5)c4)CC3)nc2)CC1)c1cccc(-c2cccnc2)c1 [Compound A8] | activity of the synthesized material was confirmed | completely displaced | 37.9 ± 3.7 | completely displace | 16.6 ± 2.3 | Ki ([3]; fixed U2OS cells overexpressing Smo-D473H, 25 nM [3H]-cyclopamine, mean±SEM, read-out: Ki, displacement of [3H]-cyclopamine from Smo-D473H receptors): 478 ± 123 nM; IC50 ([4]; Shh-LIGHT2 cells, Sonic Hedgehog 50 ng/mL, mean±SEM, n=3, read-out: IC50, inhibition of Shh-induced Gli reporter activity): 2.6 ± 0.4 nM; Hh-induced hair growth [6]: largely inhibited; activity after storage in solution [7]: retained activity
2 | CS(=O)(=O)c1ccc(C(=O)Nc2ccc(Cl)c(-c3ccccn3)c2)c(Cl)c1 [GDC-0449] |  | completely displaced |  | largely ineffective | 16.4 ± 2.5 | displacement of [3H]-cyclopamine from Smo-D473H at high concentration ([3]; 10 μM compound): only partially displaced
3 | Cc1c(C(=O)Nc2ccc(N3C[C@@H](C)O[C@@H](C)C3)nc2)cccc1-c1ccc(OC(F)(F)F)cc1 [LDE-225] |  | completely displaced | 6 ± 1.4 | largely ineffective |  | 
4 | CCN(C)Cc1ccc(N2CCC(NC(=O)c3cccc(-c4cccnc4)c3)CC2)nc1 [Tripos 3910] |  |  |  |  |  | Smo antagonist activity of resynthesized sample compared to previous test samples ([1]; material synthesized at Duke, assay not specified): substantially reduced Smo antagonist activity
5 | CC1=C2C[C@H]3[C@@H](CC=C4C[C@@H](O)CC[C@@]43C)[C@@H]2CC[C@]12O[C@@H]1C[C@H](C)CN[C@H]1[C@H]2C [cyclopamine] | inhibits the aggregation of βarr2-GFP | completely displaced |  | completely displace |  | inhibition of the Gli-reporter activity ([4]; 1 μM concentration): strong inhibition; IC50 ([5]; Mus musculus): 414 ± 73 nM; inhibition of aggregation of V2R and βarr2-GFP [8]: not inhibited
